“And” between values parts separate entries of the source, which are not always exact repeats. Identical values can stand only once.
Columns and labels:
[1] = tested on: N27-A cells; test: Autophagolysosome (APL) formation assay, mRFP-GFP-LC3, N27-A cells; type: cell-based, rat; settings: Figure 3b; mRFP-GFP-LC3; individual cells (30 per treatment)
Description: HeLa and N27-A cells were transfected with tandem mRFP-GFP-LC3 (Addgene) plasmid using Lipofectamine 2000 (Invitrogen) in 24-well plates. After 24 h, cells were incubated in starvation medium (Earle’s Balanced Salt Solution, EBSS; Lonza) containing bafilomycin A1 (BafA1, 10 nM), CQ (20 µM), or 4A7C-301 (1 µM) for 6 h and then fixed with 4% formaldehyde for fluorescence detection. Images were taken using a KEYENCE microscope and red (mRFP) LC3 dots and yellow (mRFP+GFP) LC3 dots were counted from three independent wells for each treatment group. 10 cells were randomly selected and counted from each well and a total of 30 cells were analyzed for each treatment group in both HeLa and N27-A cells.

[2] = tested on: TNFα gene; test: LPS-induced TNFα gene expression in BV2 cells, qRT-PCR; type: cell-based, mouse; settings: for Relative TNFα expression (% of control): Fig. S6, LPS
Description: SK-N-BE(2)C human neuroblastoma, BV2 mouse microglia (ATCC), HeLa and MN9D cell lines were cultured in Dulbecco’s Modified Eagle Medium (DMEM) supplemented with 10% fetal bovine serum (FBS) and 100 U /ml penicillin and 100 μg /ml streptomycin. The murine MN9D dopaminergic cell line was kindly provided by Drs. Michael Zigmond and Juliann Jaumotte from the University of Pittsburgh. The N27-A rat dopaminergic cell line was kindly provided by Dr. Curt Freed from the University of Colorado School of Medicine. […] For transactivity assay, SK-N-BE(2)C and N27-A cell lines were transfected with pCMV-fNurr1, pGAL-Nurr1(LBD), pGAL-Nor1(LBD) or pGAL-Nur77(LBD) and reporter construct (p4xNL3-Luc for fNurr1 or p8xUAS-Luc for LBD constructs). pRSV-β-gal was co-transfected as an internal control. Cells were lysed in a lysis buffer (25 mM Tris-phosphate (pH 7.8), 2 mM DTT, 2 mM DCTA (1,2-diaminocyclohexane-N,N,N′,N′-tetraacetic acid), 10% glycerol, and 1% Triton X-100) 24 h after transfection, followed by adding firefly luciferase substrate for luminescence detection measured by a luminometer plate reader (SpectraMax®; Molecular device). Nurr1 transactivity was normalized to β-galactosidase activity. […] For Nurr1 stability determination, MN9D cells were incubated with MPP^+ (0.5 mM) for 2, 4, 8, 16, 24, and 32 h, or were transduced with lentivirus expressing GFP only or αSyn (wild-type or A53T) then harvested 24, 48 and 72 h after transduction. For autophagolysosome (APL) formation assay, HeLa and N27-A cells were transfected with mRFP-GFP-LC3 (Addgene) using Lipofectamine 2000 (Invitrogen). The medium was changed with starvation medium (Earle’s Balanced Salt Solution; EBSS) 24 h after transfection for autophagy induction.
(§1) Total RNA was extracted using the GeneJET RNA Purification Kit (Thermo Fisher Scientific) and 100 ng of RNA was subjected to cDNA synthesis using Invitrogen Superscript cDNA Synthesis Kit (Invitrogen) according to the manufacturer’s protocol. qRT-PCR was performed using a CFX Connect Real-Time System (Bio-Rad) in a 20 μl volume mixture containing 2X SsoAdvanced Universal SYBR Green Supermix (Bio-Rad), 100 ng/μl of forward and reverse primers, and 1 μl of cDNA sample. Gene expression levels were quantified by the 2^∆∆CT method (Ct of target gene—Ct of glyceraldehyde-3-phosphate dehydrogenase (GAPDH). The following primers were used for qRT-PCR: TH forward: 5′-[…]-3′, reverse: 5′-[…]-3′; DAT forward: 5′-[…]-3′, reverse: 5′-[…]-3′; AADC forward: 5′-[…]-3′, reverse: 5′-[…]-3′; VMAT2 forward: 5′-[…]-3′, reverse: 5′-[…]-3′; c-Ret forward: 5′-[…]-3′, reverse: 5′-[…]-3′; TNFα forward: 5′-[…]-3′; reverse: 5′-[…]-3′; GAPDH, forward 5′-[…]-3′, reverse 5′-[…]-3′.

[3] = tested on: AAV-αSyn-induced male mice; test: Cylinder test, AAV-αSyn-induced PD model mice; type: in vivo, mouse; settings: αSynWT and αSynA53T mice; CQ 40, 4A7C-301 5 mg/kg/day i.p.
Excerpt: Adeno-associated viruses (AAVs) expressing GFP only or αSyn (wild-type or A53T) were kindly provided by Dr. Yoon Seong Kim from the University of Central Florida. Recombinant AAV vectors were produced using modified pAAV-IRES-hrGFP (Agilent) to express wild-type and mutant human αSyn under control of the CMV promoter. Viral particles (AAV2) were produced at the University of Iowa Viral Vector Core according to standard operating procedures (https://medicine.uiowa.edu/vectorcore/). […] AAV vectors were delivered into the substantia nigra unilaterally by stereotaxic surgery.
Mice were placed in a transparent plastic cylinder (15.5 cm high, 12.7 cm diameter) with a mirror behind it. Spontaneous activity was recorded and measured as counting the number of rearing events for 3 min session. A rear was considered only when the mouse touched the wall of the cylinder with its forelimb paws while standing on its hindlimbs (vertical movement) to count meaningful physiological movements.

[4] = tested on: MN9D cells; test: Cell viability, MTT reduction, MPP+-treated MN9D cells; type: cell-based, mouse
Description: Cell viability was determined using 3-(4,5-dimethylthiazol-2-yl)-2,5-diphenyltetrazolium bromide (MTT) as previously described[60]. Briefly, cells were incubated with 5 mg/ml of MTT (Sigma-Aldrich) solution for 3.5 h at 37 °C. MTT formazan crystals were dissolved in 10 times the volume of MTT solvent (4 mM HCl and 0.1% Nonidet P-40 in isopropanol) and the absorbance from the generated blue formazan was measured at 570 nm after 15 min incubation at room temperature. Cell viability was calculated as a percentage (%) of MTT reduction relative to vehicle control.

[5] = tested on: MN9D cells; test: Dopaminergic gene expression (TH, DAT, AADC, VMAT2, c-Ret), qRT-PCR, MN9D cells with MPP+; type: cell-based, mouse; settings: for Relative TH mRNA expression (fold of Cont.): Fig. S5a; for Relative DAT mRNA expression (fold of Cont.): Fig. S5b; for Relative AADC mRNA expression (fold of Cont.): Fig. S5c; for Relative c-Ret mRNA expression (fold of Cont.): Fig. S5e; for Relative VMAT mRNA expression (fold of Cont.): Fig. S5d
Description: as §1

[6] = tested on: HeLa cells; test: Autophagic flux, Western blot LC3B and p62, HeLa cells; type: cell-based; settings: for autophagic flux (in words): HeLa; for Relative LC3B-II experession (normalized to β-actin): Supplementary Figure S7f; for Relative p62 experession (normalized to β-actin): Supplementary Figure S7g; for Relative LC3B-II expression (normalized to β-actin): Supplementary Figure S7i; for Relative p62 expression (normalized to β-actin): Supplementary Figure S7j
Description: Experiments were confirmed by duplicate measurements of the same sample. Quantification of immunoreactive bands was performed using ImageJ software (NIH, Bethesda, MD, USA) and expressed as a relative ratio against β-actin.
The band intensities were quantified using ImageJ and normalized against β-actin.

## CCN1CCN(c2cc(N3CCN(CC)CC3)nc(NCCNc3ccnc4cc(Cl)ccc34)n2)CC1 [4A7C-301, N^1-(4,6-bis(4-ethylpiperazin-1-yl)pyrimidin-2-yl)-N^2-(7-chloroquinolin-4-yl)ethane-1,2-diamine]
[1]
  LC3 dots/cell, Red LC3 dots: 22 dots/cell (5×) and 32 dots/cell and 15 dots/cell and 27 dots/cell (6×) and 21 dots/cell (4×) and 26 dots/cell (2×) and 34 dots/cell and 31 dots/cell (2×) and 19 dots/cell (3×) and 12 dots/cell and 17 dots/cell (2×) and 16 dots/cell and 20 dots/cell
  LC3 dots/cell, Yellow LC3 dots: 9 dots/cell (2×) and 10 dots/cell (3×) and 16 dots/cell (2×) and 11 dots/cell (4×) and 20 dots/cell (2×) and 3 dots/cell (2×) and 4 dots/cell (2×) and 5 dots/cell (3×) and 15 dots/cell and 17 dots/cell and 14 dots/cell (3×) and 6 dots/cell (2×) and 7 dots/cell and 2 dots/cell and 12 dots/cell
[2]; Conc. 0.0001 µM
  Relative TNFα expression (% of control): 72.3049 % of control and 70.453 % of control and 74.7916 % of control
[2]; Conc. 0.001 µM
  Relative TNFα expression (% of control): 45.7586 % of control and 44.0429 % of control and 42.816 % of control
[2]; Conc. 0.01 µM
  Relative TNFα expression (% of control): 26.6218 % of control and 26.6304 % of control and 26.1645 % of control
[2]; Conc. 0.1 µM
  Relative TNFα expression (% of control): 25.1791 % of control and 23.3247 % of control and 22.8855 % of control
[2]; Conc. 1 µM
  Relative TNFα expression (% of control): 21.147 % of control and 21.3464 % of control and 19.5073 % of control
[2]; Mus musculus, BV-2, suppression of LPS-induced TNFα gene, BV2 cells, read-out: EC50
  EC50: ~1 nM
[3]
  motor deficits, cylinder test (rearing) (in words): improved motor deficits
[4]; Fig. S1f, with MPP+, conc. 0.1 µM, replicates
  MTT reduction (%): 55.1664% and 54.641% and 56.7426%
[4]; Fig. S1f, with MPP+, conc. 0.5 µM, replicates
  MTT reduction (%): 58.8441% and 58.3187% and 60.4203%
[4]; Fig. S1f, with MPP+, conc. 1 µM, replicates
  MTT reduction (%): 62.5219% (2×) and 61.4711%
[4]; Fig. S1f, with MPP+, conc. 5 µM, replicates
  MTT reduction (%): 60.9457% and 62.5219% and 63.0473%
[4]; Fig. S1f, with MPP+, conc. 10 µM, replicates
  MTT reduction (%): 61.9965% and 61.4711% and 63.0473%
[4]; Fig. S3c, with MPP+, 0.1 µM
  MTT reduction (%): 54.8913% and 57.0652% and 55.4348%
[4]; Fig. S3c, with MPP+, 0.5 µM
  MTT reduction (%): 59.2391% and 59.7826% and 60.3261%
[4]; Fig. S3c, with MPP+, 1 µM
  MTT reduction (%): 63.0435% and 64.1304% and 62.5%
[4]; Fig. S3c, with MPP+, 5 µM
  MTT reduction (%): 63.587% and 61.9565% and 64.6739%
[4]; Fig. S3c, with MPP+, 10 µM
  MTT reduction (%): 63.587% and 61.9565%
[4]; Fig. S3e, MPP+, Control, CQ 100 µM, 4A7C-301 1 µM
  MTT reduction (%): 68.2632% and 62.1053% and 68.2105% and 63.0526%
[4]; Fig. S3e, MPP+, Nurr1 KD, CQ 100 µM, 4A7C-301 1 µM
  MTT reduction (%): 31.8421% and 30.5263% and 31.5789% and 29.7368%
[4]; Fig. S3e, MPP+, Nurr1 OE, CQ 100 µM, 4A7C-301 1 µM
  MTT reduction (%): 85.4211% and 91.8947% and 89.4737% and 88.2632%
[5]; w/ MPP+
  Relative TH mRNA expression (fold of Cont.): 1.331 fold of Cont. and 1.238 fold of Cont. and 1.4297 fold of Cont.
  Relative DAT mRNA expression (fold of Cont.): 1.51 fold of Cont. and 1.43 fold of Cont. and 1.594 fold of Cont.
  Relative AADC mRNA expression (fold of Cont.): 1.175 fold of Cont. and 1.144 fold of Cont. and 1.206 fold of Cont.
  Relative c-Ret mRNA expression (fold of Cont.): 0.9952 fold of Cont. and 1.121 fold of Cont. and 0.8833 fold of Cont.
  Relative VMAT mRNA expression (fold of Cont.): 1.0229 fold of Cont. and 0.9814 fold of Cont. and 1.066 fold of Cont.
[5]; w/o MPP+
  Relative TH mRNA expression (fold of Cont.): 2.626 fold of Cont. and 3.055 fold of Cont. and 2.8325 fold of Cont.
  Relative DAT mRNA expression (fold of Cont.): 3.527 fold of Cont. and 3.949 fold of Cont. and 3.732 fold of Cont.
  Relative AADC mRNA expression (fold of Cont.): 1.767 fold of Cont. and 1.615 fold of Cont. and 1.689 fold of Cont.
  Relative c-Ret mRNA expression (fold of Cont.): 1.827 fold of Cont. and 2.268 fold of Cont. and 2.036 fold of Cont.
  Relative VMAT mRNA expression (fold of Cont.): 2.085 fold of Cont. and 1.956 fold of Cont. and 2.019 fold of Cont.
[5]; MN9D, decreased by MPP+
  dopaminergic gene expression (in words): significantly rescued
[5]; dopaminergic gene expression, MN9D and VM primary cells
  concentration for similar effect, times lower than CQ: 20–40 times
[6]; 10-times higher concentrations than 1 µM
  autophagic flux (in words): did not inhibit autophagy
[6]; LC3B-II and p62
  autophagic flux (in words): completed
[6]; time 0h
  Relative LC3B-II experession (normalized to β-actin): 0.384 and 0.423 and 0.339
  Relative p62 experession (normalized to β-actin): 0.809 and 0.904 and 0.909
[6]; time 0.5h
  Relative LC3B-II experession (normalized to β-actin): 0.455 and 0.539 and 0.396
  Relative p62 experession (normalized to β-actin): 0.889 and 0.886 and 0.829
[6]; time 1h
  Relative LC3B-II experession (normalized to β-actin): 0.533 and 0.561 and 0.521
  Relative p62 experession (normalized to β-actin): 0.800 and 0.736 and 0.720
[6]; time 2h
  Relative LC3B-II experession (normalized to β-actin): 0.526 and 0.509 and 0.466
  Relative p62 experession (normalized to β-actin): 0.670 and 0.672 and 0.687
[6]; time 4h
  Relative LC3B-II experession (normalized to β-actin): 0.415 and 0.449 and 0.331
  Relative p62 experession (normalized to β-actin): 0.552 and 0.570
[6]; Conc. 1 µM
  Relative LC3B-II expression (normalized to β-actin): 0.5044 and 0.5121 and 0.5349
  Relative p62 expression (normalized to β-actin): 0.2532 and 0.2036 and 0.1875
[6]; Conc. 10 µM
  Relative LC3B-II expression (normalized to β-actin): 0.4913 and 0.4289 and 0.4955
  Relative p62 expression (normalized to β-actin): 0.2002 and 0.2111 and 0.1727
